Test results as given in patent publication US7462647B2, “Pentalfluoroalkanesulfinyl naphthalenes and related estrogen receptor modulators” (Eli Lilly and Company, priority 2003, dated 2008).

What was measured:
[1] = target: T1, ERAlpha receptor (Homo sapiens, UniProt P03372); test: Competition binding assay, 3H-Estradiol, ER alpha; settings: IC50 converted to Ki using Cheng-Prusoff equation
T1 construct: purchased PanVera
T1 sequence (P03372 1-595): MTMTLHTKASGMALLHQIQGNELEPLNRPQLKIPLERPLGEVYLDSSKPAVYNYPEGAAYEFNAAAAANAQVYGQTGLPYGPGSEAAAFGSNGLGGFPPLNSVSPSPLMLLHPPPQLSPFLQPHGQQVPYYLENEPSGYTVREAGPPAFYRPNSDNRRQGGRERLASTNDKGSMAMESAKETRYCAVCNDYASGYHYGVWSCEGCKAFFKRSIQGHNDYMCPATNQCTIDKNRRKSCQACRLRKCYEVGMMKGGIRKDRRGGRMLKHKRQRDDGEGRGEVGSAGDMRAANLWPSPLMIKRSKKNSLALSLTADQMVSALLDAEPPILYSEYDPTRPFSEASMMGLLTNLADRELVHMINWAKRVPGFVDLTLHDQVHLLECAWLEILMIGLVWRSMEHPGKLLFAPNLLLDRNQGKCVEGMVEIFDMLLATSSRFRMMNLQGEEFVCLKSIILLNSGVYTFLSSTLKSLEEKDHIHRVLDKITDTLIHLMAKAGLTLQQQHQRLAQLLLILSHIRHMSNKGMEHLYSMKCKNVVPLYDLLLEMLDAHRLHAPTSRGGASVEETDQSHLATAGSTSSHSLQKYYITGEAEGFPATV
Description: (§1) Competition binding assay is run in a buffer containing 50 mM Hepes, pH 7.5, 1.5 mM EDTA, 150 mM NaCl, 10% glycerol, 1 mg/ml ovalbumin and 5 mM DTT, using 0.025 μCi per well ^3H-Estradiol(NEN #NET517 at […], 1 mCi/ml), 10 ng/well ERAlpha or ERbeta receptor (PanVera). Competing compounds are added at 10 different concentrations. Non-specific binding is determined in the presence of 1 μM of 17-B Estradiol. The binding reaction (140 μl) is incubated for 4 hours at room temperature, then 70 μl of cold DCC buffer is added to each reaction (DCC buffer contains per 50 ml of assay buffer, 0.75 g of charcoal (Sigma) and 0.25 g of dextran (Pharmacia)). Plates are mixed 8 minutes on an orbital shaker at 4° C. Plates are then centrifuged at 3,000 rpm at 4° C. for 10 minutes. An aliquot of 120 μl of the mix is transferred to another 96-well, white flat bottom plate (Costar) and 175 μl of Wallac Optiphase “Hisafe 3” scintillation fluid is added to each well. Plates are sealed and shaken vigorously on an orbital shaker. After an incubation of 2.5 hrs, read plates in a Wallac Microbeta counter. The data is used to calculate an IC50 and % Inhibition at 10 μM. The Kd for ^3H-Estradiol is determined by saturation binding to ER alpha and ER beta receptors. The IC50 values for compounds are converted to K; using Cheng-Prusoff equation and the Kd determined by saturation binding assay.

[2] = target: T2, ERbeta receptor (Homo sapiens, UniProt Q92731); test: Competition binding assay, 3H-Estradiol, ER beta; settings: IC50 converted to Ki using Cheng-Prusoff equation; read-out: Binding ER b Ki
T2 construct: purchased PanVera
Description: as §1

[3] = test system: MCF-7 breast adenocarcinoma cells; test: MCF-7 proliferation assay (14C-thymidine), antagonist mode; type: cell-based
Description: MCF-7 breast adenocarcinoma cells (ATCC HTB 22) are maintained in MEM (minimal essential medium, phenol red-free, Gibco BRL) supplemented with 10% fetal bovine serum (FBS) (V/V), L-glutamine (2 mM), sodium pyruvate (1 mM), HEPES ((N-[2-hydroxyethyl]piperazine-N′-[2-ethanesulfonic acid]10 mM}, non-essential amino acids (0.1 mM) and Penicillin Streptomycin(IX). Seven days prior to assay, MCF-7 cells are switched to assay media which is the same as maintenance medium except supplemented with 10% dextran-coated charcoal-stripped fetal bovine serum (DCC-FBS) assay medium in place of 10% FBS. MCF-7 cells are removed from flasks using 10× Trypsin EDTA (phenol red free, Gibco BRL) and diluted to 1× in (Ca++/Mg++ free HBSS (phenol red-free). Cells are adjusted to 80,000 cells/ml in assay medium. […] For each of the agonist plates, a basal level (media), and a maximum stimulated level (with 1 μM E2) is determined. For each of the antagonist plates, a basal level (media) and a E2 (10 pM) alone control is determined. […] The plates are incubated overnight in the same incubator and then counted on the Wallac Microbeta counter. […] For the agonist mode, an EC50 and percent of maximum E2 stimulation and concentration of maximum stimulation is calculated. […]

[4] = test system: Ishikawa human endometrial tumor cells; test: Ishikawa cell alkaline phosphatase (PNPP) assay, antagonist mode; type: cell-based
From the text: Ishikawa human endometrial tumor cells are maintained in MEM (minimum essential medium, with Earle's salts and L-Glutamine, Gibco BRL, Gaithersburg, Md.), supplemented with 10% fetal bovine serum (FBS) (V/V), (Gibco BRL). One day prior to assay, growth media is changed to assay medium, DMEM/F-12 (3:1) (Dulbecco's Modified Eagle Medium: Nutrient Mixture F-12, 3:1 Mixture, phenol red-free, Gibco BRL) supplemented with 5% dextran coated charcoal stripped fetal bovine serum (DCC-FBS) (Hyclone, Logen, UT), L-Glutamine (2 mM), MEM sodium pyruvate (1 mM), HEPES (N-[2-hydroxyethyl]piperazine-N′-[2-ethanesulfonic acid]2 mM) all from Gibco BRL). After an overnight incubation, ishikawa cells are rinsed with Dulbecco's Phosphate Buffered Saline (1×) (D-PBS) without Ca^+2 and Mg^+2 (Gibco BRL), and trypsinized by a 3 minute incubation with 0.25% Trypsin/EDTA, phenol red-free (Gibco BRL). Cells are resuspended in assay medium and adjusted to 250,000 cells/ml. […] After a 20-minute incubation, plates are read on a spectophotometer at 405 nm. […] For the agonist mode, a % efficacy for each compound is calculated versus the response to Tamoxifen. For the antagonist mode, a % efficacy for each compound is calculated versus E2 (1 nM) alone.

T2 sequence (Q92731 whole entry): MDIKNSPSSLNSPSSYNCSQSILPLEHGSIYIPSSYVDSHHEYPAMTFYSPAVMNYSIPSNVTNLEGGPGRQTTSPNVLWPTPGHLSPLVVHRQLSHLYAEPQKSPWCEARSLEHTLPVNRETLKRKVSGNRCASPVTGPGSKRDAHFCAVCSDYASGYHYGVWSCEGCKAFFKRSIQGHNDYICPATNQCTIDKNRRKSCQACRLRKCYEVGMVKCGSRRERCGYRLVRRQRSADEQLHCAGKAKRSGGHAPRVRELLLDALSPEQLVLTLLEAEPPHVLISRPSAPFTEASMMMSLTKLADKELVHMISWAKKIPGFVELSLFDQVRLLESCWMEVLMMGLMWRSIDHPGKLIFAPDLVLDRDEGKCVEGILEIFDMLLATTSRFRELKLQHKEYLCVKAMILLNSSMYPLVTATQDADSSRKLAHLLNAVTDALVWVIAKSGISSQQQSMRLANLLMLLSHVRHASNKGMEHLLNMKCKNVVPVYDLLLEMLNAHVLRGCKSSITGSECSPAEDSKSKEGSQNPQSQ

For `COc1ccc(-c2ccc3cc(O)ccc3c2Oc2ccc(OCCCC[S+]([O-])CCCC(F)(F)C(F)(F)F)cc2)cc1` (stereo not drawn) [Example 2, 6-(4-Methoxy-phenyl)-5-{4-[4-(4,4,5,5,5-pentafluoro-pentane-sulfinyl)-butoxy]-phenoxy}-naphthalen-2-ol], the Ki [1] was 0.3 nM, the Ki [2] was 0.2 nM and the “MCF-7 Antag. % Eff.” value ([3]; 10 pM E2, % inhibition @ 1 μM) was 86%. The IC50 ([3]; Homo sapiens, MCF7, 10 pM E2, read-out: MCF-7 IC 50) was 2.5 nM, the “Ishikawa Antag. % Eff.” value ([4]; % efficacy versus E2 (1 nM) alone) was 100% and the IC50 ([4]; Homo sapiens, Ishikawa, E2 1 nM, read-out: Ishikawa IC 50) was 6.8 nM.
